# According to patent US9945845B2, “Methods of screening using amphibians” (priority 2009, dated 2018):
# “Also recorded” adds a separate entry of the source.
# Columns and labels:
# LEC [1] = assay: cells; assay type: cell-based, human; settings: 1 μM in 0.1% DMSO, overnight
# Outline: (§1)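 HUVEC and LEC in EBM with 20% FBS, hydrocortisone and dibutyryl-cAMP, up to eleven passages, treated overnight at 37 °C with compound at 1 μM in 0.1% DMSO, then fixed in 4% paraformaldehyde. Read-out: total tube length (μm) per area over three hotspot images per well, triplicate wells.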
# [2] = tested on: transgenic zebrafish expressing a fluorescent vascular reporter gene; settings: Tran et al., 2007, cited from earlier work
# Xenopus embryos = tested on: Xenopus embryos
# Outline: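 Stage 31 (37 hpf) Xenopus embryos, five per well, exposed to 20 µM compound in 1% DMSO at 23 °C for 4 days. Edema, lethality and other external phenotypes were scored daily by two investigators at stages 39, 41, 45 and 47.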
# HUVEC = HUVEC tube formation assay; assay type: cell-based, human; settings: 1 μM in 0.1% DMSO, overnight
# Outline: as §1
# [3] = tested on: blood vessel development and/or lymphangiogenesis in Xenopus embryos; assay type: in vivo, Xenopus laevis
# Outline: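 Albino Xenopus embryos treated at 20 μM final (from 10-mM DMSO stocks) in screening medium, 7 per well, from stage 31 (37 hpf) to stage 35/36 (50 hpf) or 42 (80 hpf). Fixed in 4% paraformaldehyde and scored by whole-mount in situ hybridization: vasculogenesis and intersomitic vein angiogenesis at stage 35/36, lymph vessel development at stage 42.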
# LEC [4] = assay: LEC cell proliferation assay; assay type: cell-based, human; settings: 10 μM in 0.1% DMSO, 48 hours
# Outline: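 HUVEC and LEC in EBM with 20% FBS, hydrocortisone and dibutyryl-cAMP were treated with compound at 10 μM in 0.1% DMSO for 48 hours. Viable cells read by fluorescence, in five replicates.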
smiles,measurement,setting,value
"CN(C)c1ccc(C=C2C(=O)Nc3ccccc32)cc1 [SU 4312, 3-(4-Dimethylaminobenzylidenyl)-2-indolinone]",LEC tube formation,LEC [1],"O (O, inactive or marginal effects (85-115% of control);)"
same,recovery as antiangiogenic compound in the transgenic zebrafish screen,[2],recovery
same,antiangiogenic effects in zebrafish,[2]; at higher concentrations (>30 μM),moderate antiangiogenic effects
same,scored in the phenotypic Xenopus screens,"Xenopus embryos; 20 μM, known antiangiogenic compounds",active
same,Embr. phen.,Xenopus embryos; embryonic phenotype in the primary screen,EDE
same,Type of edema Pronephric,Xenopus embryos; embryonic stage,45 embryonic stages according to Nieuwkoop and Faber (NF)
same,Type of edema Periocular,"Xenopus embryos; embryonic stage, * = causing bulging eyes, # = bilateral, causing narrow-set eyes",45 embryonic stages according to Nieuwkoop and Faber (NF)
same,Type of edema Ventral,"Xenopus embryos; embryonic stage, ‡ = edemas also detected in the gut",45 embryonic stages according to Nieuwkoop and Faber (NF)
same,Onset (NF),"Xenopus embryos; onset of edema, 20 μM, 1% DMSO, treatment from stage 31, Nieuwkoop & Faber stage",45 NF
same,HUVEC tube formation,HUVEC,"O (O, inactive or marginal effects (85-115% of control);)"
same,"blood vessel development phenotype (apj expression, in words)","[3]; 20 μM from stage 31, fixed at stage 35/36",largely unaffected; also recorded: normal angiogenic ISV outgrowth
same,"lymph vessel development phenotype (vegfr3 expression, in words)","[3]; 20 μM from stage 31, fixed at stage 42",inhibiting preferentially lymphatic vascular development; also recorded: lymphangiogenesis was largely suppressed; also recorded: robustly blocks lymphangiogenesis
same,Blood vessel phenotype,[3]; Xenopus embryos,normal
same,ALH phenotype,"[3]; anterior lymph heart, Xenopus embryos",impaired
same,ALS phenotype,"[3]; anterior lymph sac, Xenopus embryos",impaired
same,PLV phenotype,"[3]; posterior lymph vessels, Xenopus embryos",hypoplastic
same,LEC proliferation,LEC [4],"O (O, inactive or marginal effects (85-115% of control);)"
